# According to ChEMBL document CHEMBL1157375, “Prospective randomized trial of empiric therapy with trimethoprim-sulfamethoxazole or doxycycline for outpatient skin and soft tissue infections in an area of high prevalence of methicillin-resistant Staphylococcus aureus” (2007):
# Active and inactive are the calls of the source. The calls are words filed in the database; no cut-off is given here.
# System: Staphylococcus aureus
# Experiment: Antimicrobial activity against methicillin-resistant Staphylococcus aureus infected patient with skin and soft tissue infection abscesses assessed as clinical failure rate at 100 mg, po twice daily for 7 days
# Type: functional, organism-based
smiles,measurement,value
C[C@H]1c2cccc(O)c2C(=O)C2=C(O)[C@]3(O)C(=O)C(C(N)=O)=C(O)[C@@H](N(C)C)[C@@H]3[C@@H](O)[C@@H]21,Activity,Active
